The target of one assay is T1, RETV804L (Homo sapiens, UniProt P07949, V804L).
T1 sequence (P07949 658-1114 V804L limits assumed): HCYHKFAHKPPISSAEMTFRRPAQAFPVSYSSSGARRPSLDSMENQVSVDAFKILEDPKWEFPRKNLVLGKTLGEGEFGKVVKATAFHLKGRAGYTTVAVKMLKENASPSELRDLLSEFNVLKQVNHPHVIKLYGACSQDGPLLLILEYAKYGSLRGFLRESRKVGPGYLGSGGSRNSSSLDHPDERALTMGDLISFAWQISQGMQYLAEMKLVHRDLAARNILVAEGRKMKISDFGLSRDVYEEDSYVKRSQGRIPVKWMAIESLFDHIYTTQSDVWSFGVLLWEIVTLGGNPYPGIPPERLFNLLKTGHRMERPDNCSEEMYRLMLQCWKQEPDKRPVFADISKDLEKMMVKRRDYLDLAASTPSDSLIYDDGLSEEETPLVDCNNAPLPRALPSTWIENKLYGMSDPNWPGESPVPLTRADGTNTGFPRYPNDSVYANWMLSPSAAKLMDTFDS
Put plainly: Biochemical kinase selectivity assay, RET V804L.

A further assay concerns Molm14^D835Y. Put plainly: Cell proliferation (CellTiter-Glo, 48 h), Molm14 D835Y. The format is cell-based. The following applies: for GI50: Homo sapiens, MOLM-14, Molm14^D835Y, 48 hours. The source says:
(§1) Stable BaF3 populations expressing activated FLT3 were generated by retroviral spinfection with the appropriate mutated plasmid followed by selection and growth factor withdrawal as previously described. The BaF3 cell line was originally obtained from the laboratory of Charles Sawyers and has not been authenticated. MV411 and Molm14 cells were obtained from the laboratory of Scott Kogan and authenticated by Promega STR analysis in June 2013. All cell lines were mycoplasma-free. Cells were incubated with compounds for 48 hours and proliferation was assessed using CellTiter-Glo (Promega; Madison, WI) according to the manufacturer’s recommendation on a SpectraMax M3 microplate reader using SpectraMax Software (Molecular Devices; Sunnyvale, CA). All cell viability data shown is reflective of experiments performed a minimum of three times. […]
(§2) S13. Cell Cultures: Stable BaF3 populations expressing activated FLT3 were generated by retroviral spinfection with the appropriate mutated plasmid followed by selection and growth factor withdrawal as previously described .4 The BaF3 cell line was originally obtained from the laboratory of Charles Sawyers and has not been authenticated. MV411 and Molm14 cells were obtained from the laboratory of Scott Kogan and authenticated by Promega STR analysis in June
(§3) 2013. All cell lines were mycoplasma -free. Cells were incubated with compounds for 48 hours and proliferation was assessed using CellTiter -Glo (Promega; Madison, WI) according to the manufacturer’s recommendation on a SpectraMax M3 microplate reader using SpectraMax Software (Molecular Devices; Sunnyvale, CA). All cell viability data shown is reflective of experiments performed a minimum of three times.
For orientation: ATP-based viability assays read luminescence as a measure of living cells.

The target in another assay is Aurora B (Homo sapiens, UniProt Q96GD4). Put plainly: Biochemical kinase selectivity assay, Aurora B.
Another assay has as its system Molm14^F691L. Put plainly: Cell proliferation (CellTiter-Glo, 48 h), Molm14 F691L. The format is cell-based. Particulars: for GI50: Homo sapiens, MOLM-14, Molm14^F691L, 48 hours.
Description: as §1, §2, §3

A further assay concerns MV4–11 AML cells. Put plainly: Cell proliferation (CellTiter-Glo, 48 h), MV4-11. The format is cell-based. Particulars: Homo sapiens; MV4–11, 48 hours.
Description: as §1, §2, §3

As usually defined, the inhibition is the percentage by which the read-out fell short of the control. What is called GI50 is the concentration that inhibits growth by half. The low end stands for more potent growth inhibition, the high end for less potent growth inhibition.

Aurora B, sequence (Q96GD4 whole entry): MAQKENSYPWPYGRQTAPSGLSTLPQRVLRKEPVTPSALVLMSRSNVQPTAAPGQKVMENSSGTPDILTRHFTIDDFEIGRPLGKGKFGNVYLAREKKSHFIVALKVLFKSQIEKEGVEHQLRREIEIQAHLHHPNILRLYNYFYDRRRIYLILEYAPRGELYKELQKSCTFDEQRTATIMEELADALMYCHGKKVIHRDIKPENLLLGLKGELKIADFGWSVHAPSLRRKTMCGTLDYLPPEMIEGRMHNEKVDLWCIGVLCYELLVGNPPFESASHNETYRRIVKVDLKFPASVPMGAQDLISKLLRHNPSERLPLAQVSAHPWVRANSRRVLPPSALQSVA

Regarding `Cn1nc(C(C)(C)C)cc1NC(=O)Cc1ccc(Nc2cc(Nc3ccc(S(C)(=O)=O)cc3)ncn2)cc1` [13a, 2-(4-(6-(4-(Methylsulfonyl)phenylamino)pyrimidin-4-ylamino)phenyl)-N-(3-tert-butyl-1-methyl-1H-pyrazol-5-yl)acetamide], the inhibition at 20 µM stood at 62.3% at RETV804L and 79.8% against Aurora B. Further, the GI50 with Molm14^D835Y amounted to 1.84 µM; in the assay on Molm14^F691L, 1.34 µM; with MV4–11 AML cells, 0.0099 µM. In addition, in the assay on Molm14^D835Y (relative to the parental FLT3-ITD cells), the “fold reduction in cellular activity against Molm14^D835Y” value is recorded as ~ 10 fold. Also, in the assay on Molm14^F691L (gatekeeper mutation, relative to the parental FLT3-ITD cells), the “fold reduction in cellular activity against Molm14^F691L” value is ~ 10 fold.

Consider `CC(C)(C)c1cc(NC(=O)Cc2ccc(Nc3cc(Nc4ccc(S(C)(=O)=O)cc4)ncn3)cc2)no1` [13k, 2-(4-(6-(4-(Methylsulfonyl)phenylamino)pyrimidin-4-ylamino)phenyl)-N-(5-tert-butylisoxazol-3-yl)acetamide], for which the inhibition at 20 µM against RETV804L worked out at 40.8%; against Aurora B, 71.9%. Moreover, the GI50 with Molm14^D835Y amounted to 2.61 µM; with Molm14^F691L, 2.14 µM; with MV4–11 AML cells it was 0.0072 µM.

(Values after PMC5829162, “Rational Design, Synthesis and Biological Evaluation of Pyrimidine-4,6-diamine derivatives as Type-II inhibitors of FLT3 Selective Against c-KIT” (Scientific Reports, 2018).)
